In the NIST ThermoML archive (doi:10.1016/j.tca.2011.06.003):
± gives the expanded uncertainty stated by the source.

Test: xn = mol fraction of the nth substance listed
Conditions: 101 kPa, Liquid; for speed of sound: Sing-around technique in a fixed-path interferometer; for mass density: Vibrating tube method

NCCNCCN [di(2-aminoethyl)amine] + CC(C)O
Conditions	mass density [kg/m3]	speed of sound [m/s]	viscosity [mPa·s]
293.15 K, x1 = 0.0534	803.892 ± 0.15	1206.4 ± 0.8	–
293.15 K, x1 = 0.1022	818.972 ± 0.14	1244.9 ± 0.8	–
293.15 K, x1 = 0.1556	830.953 ± 0.14	1283.2 ± 0.8	–
293.15 K, x1 = 0.2053	842.389 ± 0.14	1318.6 ± 0.8	–
293.15 K, x1 = 0.2541	852.667 ± 0.13	1350.5 ± 0.9	–
293.15 K, x1 = 0.3083	863.147 ± 0.13	1383.9 ± 0.9	–
293.15 K, x1 = 0.4044	880.002 ± 0.12	1438.7 ± 0.9	–
293.15 K, x1 = 0.5025	894.43 ± 0.12	1488.6 ± 0.9	–
293.15 K, x1 = 0.6122	909.336 ± 0.11	1538.2 ± 0.9	–
293.15 K, x1 = 0.711	921.252 ± 0.11	1583.2 ± 0.9	–
293.15 K, x1 = 0.8021	930.895 ± 0.1	1618.9 ± 0.9	–
293.15 K, x1 = 0.8555	936.343 ± 0.1	1638 ± 0.9	–
293.15 K, x1 = 0.9092	941.621 ± 0.1	1658.5 ± 0.9	–
293.15 K, x1 = 0.953	945.719 ± 0.099	1673.3 ± 1	–
298.15 K, x1 = 0.0532	–	–	2.514 ± 0.029
298.15 K, x1 = 0.0534	799.63 ± 0.15	1188.7 ± 0.8	–
298.15 K, x1 = 0.1022	814.391 ± 0.15	1227.2 ± 0.8	2.884 ± 0.033
298.15 K, x1 = 0.1556	826.675 ± 0.14	1265.5 ± 0.8	3.313 ± 0.038
298.15 K, x1 = 0.2053	838.104 ± 0.14	1300.9 ± 0.8	3.628 ± 0.041
298.15 K, x1 = 0.2541	848.377 ± 0.13	1332.6 ± 0.9	3.97 ± 0.045
298.15 K, x1 = 0.3083	858.864 ± 0.13	1365.9 ± 0.9	4.268 ± 0.048
298.15 K, x1 = 0.4044	875.743 ± 0.12	1420.7 ± 0.9	4.708 ± 0.053
298.15 K, x1 = 0.5025	890.185 ± 0.12	1470 ± 0.9	4.984 ± 0.056
298.15 K, x1 = 0.6122	905.106 ± 0.11	1518.9 ± 0.9	5.192 ± 0.057
298.15 K, x1 = 0.711	917.035 ± 0.11	1563.1 ± 0.9	5.223 ± 0.058
298.15 K, x1 = 0.8021	926.667 ± 0.1	1599.5 ± 0.9	5.286 ± 0.058
298.15 K, x1 = 0.8555	932.115 ± 0.1	1618.5 ± 0.9	5.383 ± 0.059
298.15 K, x1 = 0.9092	937.389 ± 0.1	1638.7 ± 0.9	5.441 ± 0.059
298.15 K, x1 = 0.953	941.486 ± 0.1	1653.4 ± 0.9	5.54 ± 0.06
303.15 K, x1 = 0.0532	–	–	2.087 ± 0.025
303.15 K, x1 = 0.0534	795.321 ± 0.15	1171.2 ± 0.8	–
303.15 K, x1 = 0.1022	809.803 ± 0.15	1209.5 ± 0.8	2.388 ± 0.028
303.15 K, x1 = 0.1556	822.362 ± 0.14	1247.7 ± 0.8	2.697 ± 0.031
303.15 K, x1 = 0.2053	833.79 ± 0.14	1282.9 ± 0.8	2.976 ± 0.034
303.15 K, x1 = 0.2541	844.065 ± 0.13	1314.6 ± 0.8	3.217 ± 0.037
303.15 K, x1 = 0.3083	854.559 ± 0.13	1347.8 ± 0.9	3.423 ± 0.039
303.15 K, x1 = 0.4044	871.471 ± 0.12	1402.2 ± 0.9	3.721 ± 0.042
303.15 K, x1 = 0.5025	885.922 ± 0.12	1452.9 ± 0.9	3.901 ± 0.044
303.15 K, x1 = 0.6122	900.866 ± 0.11	1503.2 ± 0.9	4.08 ± 0.046
303.15 K, x1 = 0.711	912.782 ± 0.11	1543 ± 0.9	4.184 ± 0.047
303.15 K, x1 = 0.8021	922.433 ± 0.11	1579.1 ± 0.9	4.264 ± 0.048
303.15 K, x1 = 0.8555	927.887 ± 0.1	1599 ± 0.9	4.357 ± 0.049
303.15 K, x1 = 0.9092	933.158 ± 0.1	1619 ± 0.9	4.423 ± 0.05
303.15 K, x1 = 0.953	937.25 ± 0.1	1634.5 ± 0.9	4.47 ± 0.05
308.15 K, x1 = 0.0532	–	–	1.858 ± 0.022
308.15 K, x1 = 0.0534	790.957 ± 0.16	1153.7 ± 0.8	–
308.15 K, x1 = 0.1022	805.422 ± 0.15	1191.8 ± 0.8	2.064 ± 0.024
308.15 K, x1 = 0.1556	818.019 ± 0.14	1230 ± 0.8	2.315 ± 0.027
308.15 K, x1 = 0.2053	829.45 ± 0.14	1265.1 ± 0.8	2.526 ± 0.029
308.15 K, x1 = 0.2541	839.731 ± 0.14	1296.8 ± 0.8	2.708 ± 0.031
308.15 K, x1 = 0.3083	850.238 ± 0.13	1329.7 ± 0.8	2.875 ± 0.033
308.15 K, x1 = 0.4044	867.103 ± 0.12	1383.3 ± 0.9	3.121 ± 0.036
308.15 K, x1 = 0.5025	881.653 ± 0.12	1432.7 ± 0.9	3.296 ± 0.038
308.15 K, x1 = 0.6122	896.616 ± 0.12	1483.5 ± 0.9	3.442 ± 0.039
308.15 K, x1 = 0.711	908.535 ± 0.11	1525.3 ± 0.9	3.539 ± 0.04
308.15 K, x1 = 0.8021	918.202 ± 0.11	1561.5 ± 0.9	3.608 ± 0.041
308.15 K, x1 = 0.8555	923.66 ± 0.11	1580.4 ± 0.9	3.683 ± 0.042
308.15 K, x1 = 0.9092	928.927 ± 0.1	1599.6 ± 0.9	3.734 ± 0.042
308.15 K, x1 = 0.953	933.022 ± 0.1	1615.1 ± 0.9	3.771 ± 0.043
313.15 K, x1 = 0.0534	786.529 ± 0.16	1136.1 ± 0.8	–
313.15 K, x1 = 0.1022	801.012 ± 0.15	1174.3 ± 0.8	–
313.15 K, x1 = 0.1556	813.627 ± 0.14	1212.7 ± 0.8	–
313.15 K, x1 = 0.2053	825.068 ± 0.14	1247.5 ± 0.8	–
313.15 K, x1 = 0.2541	835.36 ± 0.14	1278.6 ± 0.8	–
313.15 K, x1 = 0.3083	845.885 ± 0.13	1311.4 ± 0.8	–
313.15 K, x1 = 0.4044	862.786 ± 0.13	1365.6 ± 0.9	–
313.15 K, x1 = 0.5025	877.353 ± 0.12	1415.7 ± 0.9	–
313.15 K, x1 = 0.6122	892.409 ± 0.12	1467 ± 0.9	–
313.15 K, x1 = 0.711	904.278 ± 0.11	1509.1 ± 0.9	–
313.15 K, x1 = 0.8021	913.964 ± 0.11	1543.4 ± 0.9	–
313.15 K, x1 = 0.8555	919.421 ± 0.11	1562.1 ± 0.9	–
313.15 K, x1 = 0.9092	924.691 ± 0.1	1580.8 ± 0.9	–
313.15 K, x1 = 0.953	928.787 ± 0.1	1595.2 ± 0.9	–
